According to US7960397B2, “6,9-disubstituted purine derivatives and their use as cosmetics and cosmetic compositions” (Institute of Experimental Botany, Academy of Sciences of …, priority 2007, dated 2011):
Like-named read-outs stand apart in the source and are kept apart here.

Experiments:
[1] = tested on: breast carcinoma cell line MCF-7; assay: In vitro cytotoxicity, Calcein AM assay; details: read-out: GI50 MCF7
Description: (§2) Because only metabolically active cells cleave Calcein AM, these assays detect viable cells exclusively. The quantity of reduced Calcein AM corresponds to the number of vital cells in the culture.
(§3) The cells were maintained in Nunc/Corning 80 cm^2 plastic tissue culture flasks and cultured in cell culture medium (DMEM with 5 g/l glucose, 2 mM glutamine, 100 U/ml penicillin, 100 mg/ml streptomycin, 10% fetal calf serum and sodium bicarbonate).
(§4) The cell suspensions that were prepared and diluted according to the particular cell type and the expected target cell density (2,500-30,000 cells per well based on cell growth characteristics) were added by pipette (80 ml) into 96-well microtiter plates. Inoculates were allowed a pre-incubation period of 24 hours at 37° C. and 5% CO2 for stabilization. Four-fold dilutions of the intended test concentration were added at time zero in 20 ml aliquots to the microtiter plate wells. Usually, the compound tested was evaluated at six 4-fold dilutions. […] All drug concentrations were examined in duplicate. Incubations of cells with the tested compounds lasted for 72 hours at 37° C., in a 5% CO2 atmosphere and 100% humidity. At the end of the incubation period, the cells were assayed by using Calcein AM. Ten microliters of the stock solution were pipetted into each well and incubated for 1 hour. Fluorescence (FD) was measured with the Labsystem FIA Reader Fluoroscan Ascent (UK).

[2] = tested on: Human T-lymphoblastic leukemia cell line CEM; assay: In vitro cytotoxicity, Calcein AM assay; details: Homo sapiens, 72 h, read-out: GI50 CEM
Description: as §2, §3, §4

[3] = tested on: promyelocytic HL-60 leukemia; assay: In vitro cytotoxicity, Calcein AM assay; details: read-out: GI50 HL60
Description: as §2, §3, §4

human osteosarcoma HOS = assay: In vitro cytotoxicity, Calcein AM assay; details: read-out: GI50 HOS
Description: as §2, §3, §4

excised wheat leaf tips = assay: Antisenescence test, retention of chlorophyll in excised wheat leaf tips; set-up: species or system Triticum aestivum cv. Hereward; details: for activity (%) [10^−4 mol · l^−1 BAP = 100%]: retention of chlorophyll in excised wheat leaf tips at the concentration with highest activity, 10 replicate determinations; for concentration with highest activity: retention of chlorophyll in excised wheat leaf tips, tested range 10^−8 M to 10^−4 M, 96 h in the dark at 25° C.
Description: Testing of antisenescence properties of novel cytokinin compounds on wheat leaf segments. Seeds of winter wheat, Triticum aestivum cv. Hereward, were washed under running water for 24 hours and then sown on vermiculite soaked with the Knop's solution. They were placed in the grow chamber at 25° C. with a 16 h-8 h light period at 50 mmol.m^−2.s^−1. After 7 days, the first leaf was fully developed and the second leaf had started to grow. A 35 mm long tip section of the first leaf, was removed from each of 5 seedlings and trimmed slightly to a combined weight of 100 mg. The basal ends of the five leaf tips were placed in the wells of a microtiter polystyrene plate containing […] of the solution of the tested compound each. The entire plate was inserted into a plastic box lined with paper tissues soaked with distilled water to prevent leaf sections from drying out. After 96 h incubation in the dark at 25° C., the leaves were removed and chlorophyll was extracted by heating at 80° C. for 10 min in 5 ml of 80% ethanol (v/v). The sample volume was then restored to 5 ml by the addition of 80% ethanol (v/v). The absorbance of the extract was recorded at 665 nm. In addition, chlorophyll extracts from fresh leaves and leaf tips incubated in deionized water were measured. […] Relative activity of the compound at this concentration was calculated (Table 7). The activity obtained for 10^−4 M 6-benzylaminopurine (BAP) was defined as 100%. The values shown are means of five replicates and the whole experiment was repeated twice.
(§1) The compounds to be tested were dissolved in dimethylsulfoxide (DMSO) and the solution brought up to 10^−3 M with distilled water.

mouse fibroblasts NIH3T3 = assay: In vitro cytotoxicity, Calcein AM assay; details: read-out: GI50 NIH-3T3
Description: as §2, §3, §4

[4] = tested on: cytokinin-dependent tobacco callus Nicotiana tabacum L. cv. Wisconsin 38; assay: Cytokinin activity in tobacco callus bioassay; format: cell-based; details: for concentration with highest activity: growth of tobacco callus, four weeks of cultivation, tested 10^−8 M to 10^−4 M; for Activity (%) [10^−5 mol · l^−1 BAP = 100%]: increase of fresh callus weight at the concentration with highest activity, 10^−5 M BAP = 100%
Description: Estimation of cytokinin biological activity of novel compounds in callus bioassay. Cytokinin-dependent tobacco callus Nicotiana tabacum L. cv. […] Subcultivation was carried out every three weeks. Fourteen days before the bioassay, the callus tissue was transferred to the media without the compound tested. The biological activity was determined from the increase of the fresh callus weight after four weeks of cultivation. Five replicates were prepared for each concentration of the compound tested and the entire test was repeated twice. […] The relative activity of the compound at this concentration was calculated (Table 8). […] The compounds to be tested were dissolved in dimethylsulfoxide (DMSO) and the solution brought up to 10^−3 M with distilled water. This stock solution was further diluted with the respective media used for the biotest to a concentration ranging from 10^−8 M to 10^−4 M.

[5] = tested on: Amaranthus caudatus cotyledon/hypocotyl explants; assay: Amaranthus bioassay (betacyanin content); set-up: species or system Amaranthus caudatus var. atropurpurea; details: for concentration with highest activity: betacyanin content after 48 h incubation, tested 10^−8 M to 10^−4 M; for Activity (%) [10^−5 mol · l^−1 BAP = 100%]: betacyanin content at the concentration with highest activity, 10^−5 M BAP = 100%
Description: Testing of novel compounds for typical cytokinin activity in Amaranthus bioassay. A standard Amaranthus bioassay was performed with several modifications. The seeds of Amaranthus caudatus var. atropurpurea were surface-sterilized in 10% (w/v) N-chlorobenzenesulfonamide for 10 min and washed 5 times with deionized water. They were placed in 14 cm Petri dishes containing paper tissues saturated with deionized water. After 72 h of cultivation at 25° C. in darkness, the roots of the seedlings were cut off. The explants, consisting of two cotyledons and hypocotyls, were placed in 5 cm Petri dishes onto two layers of filter paper soaked with 1 ml of the incubation medium containing 10 mmol of NA2HPO4—KH2PO4, pH 6.8, 5 mmol of tyrosine and the compound to be tested. There were 20 explants per dish. The procedure was carried out under a green safe light in a darkroom. […] The concentration of betacyanin was determined from the absorbencies at 537 nm and 620 nm as follows: DA=A537 nm−A620 nm. […] Relative activity of the compound at this concentration was calculated. The activity obtained for 10^−5 M 6-benzylaminopurine (BAP) was defined as 100%.
as §1

[6] = tested on: human diploid fibroblasts (HCA cells, HCA20, HCA40, HCA60); assay: Senescent cells (β-galactosidase staining) in culture of human fibroblasts; format: cell-based; details: for SENESCENT CELLS (%) HCA20: human fibroblasts passage 20 (HCA20); for SENESCENT CELLS (%) HCA40: human fibroblasts passage 40 (HCA40); for SENESCENT CELLS (%) HCA60: human fibroblasts passage 60 (HCA60)
Description: In this example, human diploid fibroblasts (HCA cells of various passage levels: passage 20—designated HCA20; passage 40—designated HCA40; passage 60—designated HCA60) were stained for β-galactosidase activity. The medium used for the cell cultivation was removed, the cells were washed twice in […], and fixed in 2-3 ml of fixing solution comprised of a 2% formaldehyde and 0.2% glutaraldehyde in PBS. The cells were incubated at room temperature for 5 minutes, and then washed twice with PBS. The cells were subsequently incubated at 37° C.

SMILES	GI50 ([1]; Homo sapiens, MCF7, 72 h)	GI50 [2]	GI50 ([3]; Homo sapiens, HL-60, 72 h)	GI50 (human osteosarcoma HOS; Homo sapiens, 72 h)	activity (%) [10^−4 mol · l^−1 BAP = 100%] (excised wheat leaf tips)	concentration with highest activity (excised wheat leaf tips)	GI50 (mouse fibroblasts NIH3T3; Mus musculus, NIH3T3, 72 h)	concentration with highest activity [4]	Activity (%) [10^−5 mol · l^−1 BAP = 100%] [4]	concentration with highest activity [5]	Activity (%) [10^−5 mol · l^−1 BAP = 100%] [5]	GI50 ([1]; MCF7, 72 hours, Calcein AM)	SENESCENT CELLS (%) HCA20 [6]	SENESCENT CELLS (%) HCA40 [6]	SENESCENT CELLS (%) HCA60 [6]	GI50 ([3]; HL60, 72 hours, Calcein AM)	GI50 (human osteosarcoma HOS; HOS, 72 hours, Calcein AM)	GI50 (mouse fibroblasts NIH3T3; NIH-3T3, 72 hours, Calcein AM)
C/C(=C\CNc1ncnc2c1ncn2C1CCCCO1)CO (stereo not drawn) [6-(E)-(4-hydroxy-3-methylbut-2-en-1-ylamino)-9-(tetrahydropyran-2-yl)purine]	> 167 µM	> 167 µM	> 167 µM	> 167 µM	38.2%	10^−4 mol · l^−1	> 167 µM	10^−5 mol · l^−1	96.5%	10^−4 mol · l^−1	299.4%							
COc1ccc(CNc2ncnc3c2ncn3C2CCCCO2)cc1O (stereo not drawn)					47%	10^−4 mol · l^−1		10^−6 mol · l^−1	55%	10^−4 mol · l^−1	41%	> 167 µM	5%	7%	29%	> 167 µM	> 167 µM	> 167 µM
Cc1cc(Nc2ncnc3c2ncn3C2CCCCO2)ccc1O (stereo not drawn) [4-hydroxy-3-methylanilino / tetrahydropyran-2-yl]					7%	10^−4 mol · l^−1		10^−5 mol · l^−1	12%	10^−4 mol · l^−1	15%	> 167 µM	3%	4%	19%	> 167 µM	> 167 µM	> 167 µM
CCOC(C)n1cnc2c(NC/C=C(\C)CO)ncnc21 (stereo not drawn)					92.5%	10^−4 mol · l^−1		10^−4 mol · l^−1	102.8%	10^−4 mol · l^−1	92.5%	> 167 µM				> 167 µM	> 167 µM	> 167 µM
Oc1ccc(CNc2ncnc3c2ncn3CCCCCl)cc1 [4-hydroxybenzylamino / 4-chlorobutyl, 6-(4-hydroxybenzylamine)-9-(4-chlorobutyl)purine]					33.4%	10^−4 mol · l^−1				10^−4 mol · l^−1	33.4%	> 167 µM				> 167 µM	> 167 µM	> 167 µM
C/C(=C\CNc1ncnc2c1ncn2CCCCCl)CO					73.8%	10^−4 mol · l^−1		10^−4 mol · l^−1	103.5%	10^−4 mol · l^−1	123.8%	> 167 µM				> 167 µM	> 167 µM	> 167 µM
CCOCCn1cnc2c(NCc3ccc(O)cc3)ncnc21 [Compound 133, 6-(4-hydroxybenzylamine)-9-(1-ethoxyeth-2-yl)purine]												> 167 µM				> 167 µM	> 167 µM	> 167 µM
C/C(=C\CNc1ncnc2c1ncn2C1CCCO1)CO (stereo not drawn)					45%	10^−4 mol · l^−1		10^−5 mol · l^−1	89%	10^−4 mol · l^−1	117%	> 167 µM				> 167 µM	> 167 µM	> 167 µM
Oc1ccc(CNc2ncnc3c2ncn3C2CCCO2)cc1 (stereo not drawn) [6-(4-hydroxybenzylamino)-9-(tetrahydrofuran-2-yl)-purine]	> 167 µM		> 167 µM	> 167 µM	3%	10^−4 mol · l^−1	> 167 µM	10^−5 mol · l^−1	27%	10^−4 mol · l^−1	13%		5%	5%	16%			
Oc1cccc(CNc2ncnc3c2ncn3C2CCCCO2)c1 (stereo not drawn) [6-(3-hydroxybenzylamino)-9-(tetrahydropyran-2-yl)purine]					133.1%	10^−4 mol · l^−1		10^−5 mol · l^−1	139%	10^−4 mol · l^−1	105.1%		5%	3%	25%			
Cc1cc(Nc2ncnc3c2ncn3C2CCCCO2)ccc1O (stereo not drawn) [4-hydroxy-5-methylanilino / tetrahydropyran-2-yl]					10%	10^−4 mol · l^−1		10^−5 mol · l^−1	10%	10^−4 mol · l^−1	17%	> 167 µM	4%	4%	18%	> 167 µM	> 167 µM	> 167 µM
COc1cccc(CNc2ncnc3c2ncn3C2CCCCO2)c1O (stereo not drawn)					50%	10^−4 mol · l^−1		10^−6 mol · l^−1	11%	10^−4 mol · l^−1	32%		3%	3%	25%			
